Patent US8815829B2, “3′-azido purine nucleotide prodrugs for treatment of viral infections” (priority 2008, dated 2014)
Like-named read-outs stand apart in the source and are kept apart here.

What was measured:
CEM cells = assay: Cytotoxicity assay in CEM cells; type: cell-based, human
Vero cells = assay: Cytotoxicity assay in Vero cells; type: cell-based
PBM cells [1] = assay: Cytotoxicity assay in PBM cells; type: cell-based, human
HIV-1/LAI = assay: Anti-HIV-1 assay in PBM cells; type: cell-based
Protocol: Stock solutions (20-40 mM) of the compounds were prepared in sterile DMSO and then diluted to the desired concentration in growth medium. Cells were infected with the prototype HIV-1LAI at a multiplicity of infection of 0.01. Virus obtained from the cell supernatant was quantified on day 6 after infection by a reverse transcriptase assay using (rA)n·(dT)12-18 as template-primer. […] The antiviral EC50 and EC90 were obtained from the concentration-response curve using the median effective method described previously (see Chou T.-C. & Talalay P. Adv. Enzyme Regul. 1984, 22, 27-55; Belen'kii M. S. & Schinazi R. F. Antiviral Res. 1994, 25, 1-11).

adenosine deaminase = assay: Adenosine deaminase assay (deamination of nucleosides); type: in vitro ADME
Protocol: In order to determine if these 6-substituted compounds are converted to G analogs by the enzyme adenosine deaminase, a series of enzyme kinetics experiments were undertaken.
To determine the propensity for deamination of the APN nucleosides by adenosine deaminase, nucleoside compounds were incubated with the commercially available purified enzyme, and the reaction was followed spectrophotometrically. Reaction conditions were 50 mM potassium phosphate, pH 7.4, with 50 μM APN nucleoside in 0.5 mL at 25° C. Reaction time was 7 minutes with 0.002 units of enzyme and 120 minutes with 0.2 units of enzyme. (The unit definition of adenosine deaminase is one unit will deaminate 1.0 μmol of adenosine to inosine per minute at pH 7.5 at 25° C.) Deoxyadenosine was the positive control which was 59% deaminated under the given conditions in 7 minutes with 0.002 units of enzyme. Deoxyguanosine was the negative control. Optical density was measured at 265 nm or 285 nm. The difference in optical density between the beginning and the end of the experiment was divided by the extinction coefficient then multiplied by the volume of the reaction to determine the number of mols of substrate transformed into product. Mols of product were divided by mols of substrate equivalent to a 100% complete reaction then multiplied by 100 to obtain percent deamination. The limit of detection was 0.001 optical density units.

HCV Replicon RNA = assay: HCV Replicon Assay (Huh 7 Clone B cells); type: cell-based; details: tested at 10 μM, five days
From the text: (§1) Agents Chemother. […] K., Otto, M. J., Schinazi, R. F. “Antiviral activities and cellular toxicities of modified 2′,3′-dideoxy-2′,3′-didehydrocytidine analogs” Antimicrob. Agents Chemother. 2002, 46, 3854-60. • ^cHSV-1 drug susceptibility assay was done as previously described in: Schinazi, R. F., Peters, J., Williams, C. C., Chance, D., Nahmias, A. J. “Effect of combinations of acyclovir with vidarabine or its 5′-monophosphate on herpes simplex virus in cell culture and in mice.” Antimicrob. Agents Chemother. 1982, 22, 499-507. • ^dHCV Replicon Assay^1: Huh 7 Clone B cells containing HCV Replicon RNA were seeded in a 96-well plate at 5000 cells/well, and the compounds were tested at 10 μM in triplicate immediately after seeding. Following five days incubation (37° C., 5% CO2), total cellular RNA was isolated by using versaGene RNA purification kit from Gentra. Replicon RNA and an internal control (TaqMan rRNA control reagents, Applied Biosystems) were amplified in a single step multiplex Real Time RT-PCR Assay. The antiviral effectiveness of the compounds was calculated by subtracting the threshold RT-PCR cycle of the test compound from the threshold RT-PCR cycle of the no-drug control (ΔCtHCV). A ΔCt of 3.3 equals a 1-log reduction (equal to 90% less starting material) in Replicon RNA levels. The cytotoxicity of the compounds was also calculated by using the ΔCt rRNA values. 77 (2′-Me-C) was used as the control. To determine EC90 and IC50 values^2, ΔCt: values were first converted into fraction of starting material^3 and then were used to calculate the % inhibition.

PBM cells [2] = details: human, 4 h, 50 μM
HBV = assay: Anti-HBV assay (AD-38 cell line); type: cell-based; details: Hepatitis B virus
Protocol: The anti-HBV activity of the compounds was determined by treating the AD-38 cell line carrying wild type HBV under the control of tetracycline (see Ladner S. K., Otto M. J., Barker C. S., Zaifert K., Wang G. H., Guo J. T., Seeger C. & King R. W. Antimicrob. Agents Chemother. 1997, 41, 1715-20). Removal of tetracycline from the medium [Tet (−)] results in the production of HBV. The levels of HBV in the culture supernatant fluids from cells treated with the compounds were compared with that of the untreated controls. Control cultures with tetracycline [Tet (+)] were also maintained to determine the basal levels of HBV expression.

HIV-2/pROD10 = assay: HIV-2 drug susceptibility in PBM cells; type: cell-based; details: Human immunodeficiency virus 2, PBMC
HSV-1 = HSV-1 drug susceptibility assay; type: cell-based
From the text: as §1

[3] = Chlorocebus sabaeus, Vero, read-out: Vero IC50
[4] = 50 μM nucleoside, pH 7.4, 25° C., 0.002 units enzyme
[5] = 50 μM nucleoside, pH 7.4, 25° C., 0.2 units enzyme
[6] = Table 5, read-out: Toxicity IC50 Vero
[7] = Human immunodeficiency virus 1, PBMC, PBM cells, read-out: HIV-1/LAI (PBM) EC50
[8] = Human immunodeficiency virus 1, PBMC, PBM cells, read-out: HIV-1/LAI (PBM) EC90

Row | SMILES | nucleotides detected (LC/MS) (PBM cells [2]) | species not detected (LC/MS) (PBM cells [2]) | EC50 (HBV) [µM] | EC90 (HBV) [µM] | EC50 (HIV-2/pROD10) [µM] | EC90 (HIV-2/pROD10) [µM] | EC50 (HIV-1/LAI; [7]) [µM] | EC90 (HIV-1/LAI; [8]) [µM] | other results
1 | CCOC(=O)[C@H](C)NP(=O)(OC[C@H]1O[C@@H](n2cnc3c(N)nc(N)nc32)CC1N=[N+]=[N-])Oc1ccccc1 (stereo partly drawn) [RS-783] |  |  |  |  |  |  |  |  | IC50 (CEM cells; Tables 2-4, read-out: CEM IC50): 12.1 µM; IC50 (Vero cells; [3]): > 100 µM; IC50 (PBM cells [1]; Tables 2-4, read-out: PBM IC50): 9.6 µM; EC50 (HIV-1/LAI; Tables 2-4, n = 3 for the MP prodrugs, read-out: HIV EC50): 0.0034 µM; EC90 (HIV-1/LAI; Tables 2-4, n = 3 for the MP prodrugs, read-out: HIV EC90): 0.035 µM
2 | Nc1ncnc2c1ncn2[C@H]1C[C@H](O)[C@@H](CO)O1 [2Õ-deoxy- adenosine, Deoxyadenosine, reference compound] |  |  |  |  |  |  |  |  | Deamination in 7 min (0.002 units Adenosine Deaminase) (adenosine deaminase; [4]): 59.30%; Deamination in 7 min (0.002 units Adenosine Deaminase) (adenosine deaminase; 50 μM nucleoside, pH 7.4, 25° C., 0.002 units enzyme, listed as Deoxyadenosine): 59%; Deamination in 120 min (0.2 units Adenosine Deaminase) (adenosine deaminase; [5]): 105.50%
3 | C[C@@]1(O)[C@H](O)[C@@H](CO)O[C@H]1n1ccc(N)nc1=O [2′-Me—C, reference compound] |  |  |  |  |  |  |  |  | IC50 (CEM cells; Table 5, read-out: Toxicity IC50 CEM): 24.5 µM; IC50 (Vero cells; [6]): > 100 µM; IC50 (PBM cells [1]; Table 5, read-out: Toxicity IC50 PBM): 29.4 µM; EC50 (HCV Replicon RNA): 1.3 µM; EC90 (HCV Replicon RNA): 5.4 µM
4 | COc1nc(N)nc2c1ncn2[C@H]1CC(N=[N+]=[N-])[C@@H](CO)O1 (stereo partly drawn) [Compound 70] | detection of RFS-506-DP, RFS-457-DP, and RFS-457-TP | No RFS-506, RFS-506-MP, or RFS-506-TP were detected |  |  |  |  |  |  | Deamination in 7 min (0.002 units Adenosine Deaminase) (adenosine deaminase; 50 μM, pH 7.4): 0.55 ± 5.8%; Deamination in 120 min (0.2 units Adenosine Deaminase) (adenosine deaminase; 50 μM, pH 7.4): 130.22 ± 4.72%
5 | Nc1nc(O)c2ncn([C@H]3C[C@H](O)[C@@H](CO)O3)c2n1 [2Õ-deoxy- guanosine, Deoxyguanosine, reference compound] |  |  |  |  |  |  |  |  | Deamination in 7 min (0.002 units Adenosine Deaminase) (adenosine deaminase; [4]): below level of detection; Deamination in 120 min (0.2 units Adenosine Deaminase) (adenosine deaminase; [5]): below level of detection
6 | C=CCNc1nc(N)nc2c1ncn2[C@H]1CC(N=[N+]=[N-])[C@@H](CO)O1 (stereo partly drawn) [Compound 62, 2-Amino-9-(3′-azido-2′,3′-dideoxy-β-D-erythro-pentofuranosyl)-6-allylamino-9H-purine] | detection of RFS-457-DP and RFS-457-TP | No RFS-427, RFS-427-MP, RFS-427-DP, or RFS-427-TP were detected | > 10 | > 10 | 0.71 | 7.4 | 0.5 | 4.3 | Deamination in 120 min (0.2 units Adenosine Deaminase) (adenosine deaminase; 50 μM, pH 7.4): 7.60%
7 | C=CCN(C)c1nc(N)nc2c1ncn2[C@H]1CC(N=[N+]=[N-])[C@@H](CO)O1 (stereo partly drawn) [Compound 63, 2-Amino-9-(3′-azido-2′,3′-dideoxy-β-D-erythro-pentofuranosyl)-6-N-methylallylamino-9H-purine] | detection of RFS-457-TP | No RFS-464, RFS-464-MP, RFS-464-DP, or RFS-464-TP were detected | > 10 | > 10 | 2.4 | 6.1 | 0.4 | 1.5 | 
8 | COCCNc1nc(N)nc2c1ncn2[C@H]1CC(N=[N+]=[N-])[C@@H](CO)O1 (stereo partly drawn) [Compound 74] |  |  |  |  |  |  | 2.1 | 16.2 | 
9 | CC(C)(CO)Nc1nc(N)nc2c1ncn2[C@H]1CC(N=[N+]=[N-])[C@@H](CO)O1 (stereo partly drawn) [Compound 65, 2-Amino-9-(3′-azido-2′,3′-dideoxy-β-D-erythro-pentofuranosyl)-6-N-2-methyl-2-amino-propanol-9H-purine] |  |  | > 10 | > 10 | > 100 | > 100 | 52.5 | > 10 | 
10 | Nc1nc2c(ncn2COCCO)c(=O)[nH]1 [ACV, reference compound] |  |  |  |  |  |  |  |  | IC50 (Vero cells; [6]): > 100 µM; EC50 (HSV-1): 0.16 µM; EC90 (HSV-1): 0.42 µM
11 | [N-]=[N+]=NC1C[C@H](n2cnc3c(N)nc(N)nc32)O[C@@H]1CO (stereo partly drawn) [Compound 73, β-D-3′-azido-2,6-diamino-2′,3′-dideoxypurine] | detection of RFS-457, RFS-457-MP, RFS-457-DP, RFS-457-TP RFS-667-DP, and RFS-667-TP | No RFS-667 or RFS-667-MP were detected |  |  |  |  |  |  | major metabolite (PBM cells [2]): RFS-457-TP as the major metabolite
12 | [N-]=[N+]=NC1C[C@H](n2cnc3c(NCCCCCO)nc(N)nc32)O[C@@H]1CO (stereo partly drawn) [Compound 64, 2-Amino-9-(3′-azido-2′,3′-dideoxy-β-D-erythro-pentofuranosyl)-6-aminopentanol-9H-purine] |  |  | > 10 | > 10 | > 100 | > 100 |  |  | EC50 (HIV-1/LAI; Human immunodeficiency virus 1, PBMC, read-out: HIV-1/LAI (PBM) EC50, PBM cells): 86.5 µM; EC90 (HIV-1/LAI; Human immunodeficiency virus 1, PBMC, read-out: HIV-1/LAI (PBM) EC90, PBM cells): > 10 µM
13 | [N-]=[N+]=NC1C[C@H](n2cnc3c(NC4CC4)nc(N)nc32)O[C@@H]1CO (stereo partly drawn) [Compound 72] | detection of RFS-457-DP and RFS-457-TP | No RFS-512, RFS-512-MP, RFS-512-DP, or RFS-512-TP were detected | > 10 | > 10 | 3.1 | 15.8 | 1.5 | 8.8 | Deamination in 7 min (0.002 units Adenosine Deaminase) (adenosine deaminase; 50 μM, pH 7.4): 0.56%; Deamination in 120 min (0.2 units Adenosine Deaminase) (adenosine deaminase; 50 μM, pH 7.4): 33.40%
14 | CN(C)c1nc(N)nc2c1ncn2[C@H]1CC(N=[N+]=[N-])[C@@H](CO)O1 (stereo partly drawn) [Compound 69] |  |  | > 10 | > 10 | 2.5 | 5.9 | 0.21 | 1.05 | Conversion by / stability to adenosine deaminase (adenosine deaminase): stable to adenosine deaminase
15 | CCOC(=O)[C@H](C)NP(=O)(OC[C@H]1O[C@@H](n2cnc3c(Cl)nc(N)nc32)CC1N=[N+]=[N-])Oc1ccccc1 (stereo partly drawn) [RS-784] |  |  |  |  |  |  |  |  | IC50 (CEM cells; Homo sapiens, CCRF-CEM, Tables 2-4, read-out: CEM IC50): 13.5 µM; IC50 (Vero cells; [3]): > 100 µM; IC50 (PBM cells [1]; Homo sapiens, PBMC, Tables 2-4, read-out: PBM IC50): 11.6 µM; EC50 (HIV-1/LAI; Human immunodeficiency virus 1, PBMC, Tables 2-4, n = 3 for the MP prodrugs, read-out: HIV EC50): 0.035 µM; EC90 (HIV-1/LAI; Human immunodeficiency virus 1, PBMC, Tables 2-4, n = 3 for the MP prodrugs, read-out: HIV EC90): 0.1 µM
16 | CC(CO)Nc1nc(N)nc2c1ncn2[C@H]1CC(N=[N+]=[N-])[C@@H](CO)O1 (stereo partly drawn) [Compound 67] |  |  | > 10 | > 10 | 51.6 | > 100 | 59.9 | > 10 | 
